pIC50: −log10 of the molar value.
Tests used:
Format in all cases: cell-based
ACHN CSC = experiment: Cancer stem cells, Cell Titer-Glo 72 hours (Test Example 3); conditions: Homo sapiens, ACHN, 72 h
FaDu = experiment: Bulk cancer cells, Cell Titer-Glo 72 hours (Test Example 2); conditions: Homo sapiens
Method: (§1) Tubes of 3× drug (60 uM in 500 uL complete media) were prepared from 5 mM stock solutions in DMSO. […] To treat cells, 50 uL of drug from the dilution plate was removed and added to the cell plates. […] Cells were harvested 72 hours after drug addition using Cell Titer-Glo (Promega) and luminescence measured on a plate reader.

ACHN = experiment: as above; conditions: Homo sapiens, ACHN, 72 h
Method: as §1

A549 = experiment: as above; conditions: Homo sapiens
Method: as §1

FaDu CSC = experiment: Cancer stem cells, Cell Titer-Glo 72 hours (Test Example 3); conditions: Homo sapiens, FaDu, 72 h
A549 CSC = experiment: as above; conditions: Homo sapiens

SMILES | pIC50 (ACHN CSC) | pIC50 (FaDu) | pIC50 (ACHN) | pIC50 (A549) | pIC50 (FaDu CSC) | pIC50 (A549 CSC)
CCN(CC)CCNC(=O)c1c(C)[nH]c(/C=C2\C(=O)Nc3ccc(-c4cnc5cn[nH]c5c4)cc32)c1C [Example 181] | 4.97 | 5.83 | 5.56 | 5.49 | 6.80 | 4.58
CCN(CC)CCNC(=O)c1c(C)[nH]c(/C=C2\C(=O)Nc3ccc(-c4ccc(C)cn4)cc32)c1C [Example 184] | 5.94 | 5.52 | 5.53 | 5.19 | 6.66 | 5.47
O=C1Nc2ccc(-c3csc(-c4ccncc4)n3)cc2/C1=C/c1ncc[nH]1 [Example 153] | 5.04 | 5.47 | 6.54 | 4.83 | – | 5.59
CCN(CC)CCNC(=O)c1c(C)[nH]c(/C=C2\C(=O)Nc3ccc(-c4cccc(C#N)c4C)cc32)c1C [Example 205] | 6.24 | 5.37 | 5.28 | 5.55 | 5.33 | 5.35
CCN(CC)CCNC(=O)c1c(C)[nH]c(/C=C2\C(=O)Nc3ccc(-c4cccc(OC)n4)cc32)c1C [Example 190] | 6.62 | 5.75 | 5.71 | 5.55 | 6.72 | 5.65
CCN(CC)CCNC(=O)c1c(C)[nH]c(/C=C2\C(=O)Nc3cc(-c4cnc5ccccc5n4)ccc32)c1C [Example 251] | 5.16 | 5.13 | 4.96 | 5.15 | 5.65 | 4.37
Cc1cc(C)c(/C=C2\C(=O)Nc3ccc(-c4ccc(O)cc4C)cc32)[nH]1 [Example 261] | 4.68 | 4.83 | 4.83 | 4.90 | 4.84 | 4.43
CCN(CC)CCNC(=O)c1c(C)[nH]c(/C=C2\C(=O)Nc3ccc(-c4ncccn4)cc32)c1C [Example 182] | 5.94 | 5.22 | 5.46 | 4.81 | 7.05 | 4.74
CCN(CC)CCNC(=O)c1c(C)[nH]c(/C=C2\C(=O)Nc3ccc(-c4csc(-n5ccnc5)n4)cc32)c1C [Example 196] | 5.52 | 5.25 | 5.02 | 5.21 | 4.66 | 4.73
CCN(CC)CCNC(=O)c1c(C)[nH]c(/C=C2\C(=O)Nc3ccc(-c4cncnc4)cc32)c1C [Example 207] | 6.26 | 5.34 | 5.44 | 5.13 | 5.00 | 4.75
CCN(CC)CCNC(=O)c1c(C)[nH]c(/C=C2\C(=O)Nc3ccc(-c4ccc(C#N)c(F)c4)cc32)c1C [Example 269] | 5.77 | 4.85 | 4.88 | 4.84 | 5.46 | 4.92
CCN(CC)CCNC(=O)CCc1c(C)[nH]c(/C=C2\C(=O)Nc3ccc(-c4csc(-c5ccncc5)n4)cc32)c1C [Example 167] | 5.91 | 4.55 | 5.13 | 5.00 | 5.34 | 4.45
CCN(CC)CCNC(=O)c1c(C)[nH]c(/C=C2\C(=O)Nc3ccc(-c4cscc4C)cc32)c1C [Example 206] | 6.32 | 5.43 | 5.57 | 5.70 | 5.04 | 5.40
CCN(CC)CCNC(=O)c1cc(C)c(/C=C2\C(=O)Nc3ccc(-c4csc(-c5ccccc5)n4)cc32)[nH]1 [Example 165] | 5.39 | 4.94 | 4.83 | 5.40 | 5.50 | 4.57
CCN(CC)CCNC(=O)c1c(C)[nH]c(/C=C2\C(=O)Nc3ccc(-c4nccc5ccccc45)cc32)c1C [Example 187] | 6.15 | 5.67 | 5.30 | 5.50 | 7.52 | 4.86
CCN(CC)CCNC(=O)c1c(C)[nH]c(/C=C2\C(=O)Nc3cc(-c4cccc5ncccc45)ccc32)c1C [Example 258] | 6.38 | 5.32 | 5.58 | 5.54 | 5.58 | 5.06
CCN(CC)CCNC(=O)c1c(C)[nH]c(/C=C2\C(=O)Nc3cc(-c4ccc5ccccc5n4)ccc32)c1C [Example 253] | 5.87 | 4.78 | – | 4.79 | 5.29 | 5.18
Cc1[nH]c(/C=C2\C(=O)Nc3ccc(-c4csc(-c5ccccc5)n4)cc32)c(C)c1S(=O)(=O)N1CCOCC1 [Example 147] | 6.25 | 4.94 | 4.97 | 5.14 | 6.68 | 5.43
